Results from PubChem BioAssay (NCI).
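96-well plates; 48 h exposure; 5 concentrations. Endpoints by linear interpolation between flanking doses. Not reached: highest tested concentration assigned. The concentration for full growth arrest is given as TGI.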

How the values were obtained:
Assay in all cases: NCI anticancer screen, dose series, 48 h
[1] = test system: SR leukemia
[2] = test system: HL-60(TB) leukemia
[3] = test system: HOP-62 NSCLC
[4] = test system: EKVX NSCLC
[5] = test system: KM12 colon
[6] = test system: SNB-75 CNS
[7] = test system: SNB-19 CNS
[8] = test system: SF-295 CNS
[9] = test system: CAKI-1 renal
[10] = test system: HCT-116 colon
[11] = test system: NCI-H23 lung
[12] = test system: SN12C renal
[13] = test system: XF 498 CNS
[14] = test system: MALME-3M melanoma
[15] = test system: A549 NSCLC
[16] = test system: COLO 205 colon
[17] = test system: RXF 393 renal
[18] = test system: UACC-257 melanoma
[19] = test system: UACC-62 melanoma
[20] = test system: HT29 colon
[21] = test system: HCT-15 colon
[22] = test system: DMS 114 small cell lung
[23] = test system: SW-620 colon
[24] = test system: NCI-H522 lung
[25] = test system: SNB-78 CNS
[26] = test system: RXF-631 renal
[27] = test system: OVCAR-8 ovarian
[28] = test system: MOLT-4 leukemia
[29] = test system: LOX IMVI melanoma
[30] = test system: U251 CNS
[31] = test system: KM20L2 colon
[32] = test system: UO-31 renal
[33] = test system: OVCAR-5 ovarian
[34] = test system: TK-10 renal
[35] = test system: NCI-H460 lung
[36] = test system: OVCAR-3 ovarian
[37] = test system: A498 renal
[38] = test system: HOP-92 NSCLC
[39] = test system: OVCAR-4 ovarian
[40] = test system: RPMI-8226 leukemia
[41] = test system: LXFL 529 NSCLC
[42] = test system: SK-OV-3 ovarian
[43] = test system: ACHN renal
[44] = test system: DLD-1 colon
[45] = test system: SK-MEL-5 melanoma
[46] = test system: SF-539 CNS
[47] = test system: CCRF-CEM leukemia
[48] = test system: HOP-18 NSCLC
[49] = test system: SK-MEL-2 melanoma
[50] = test system: NCI-H226 lung
[51] = test system: M19-MEL melanoma
[52] = test system: K-562 leukemia
[53] = test system: SK-MEL-28 melanoma
[54] = test system: M14 melanoma
[55] = test system: SF-268 CNS
[56] = test system: 786-0 renal
[57] = test system: DMS 273 small cell lung
[58] = test system: IGROV1 ovarian

Measured: TGI

CC1(C)COC2(OC1)C1=NS(=O)(=O)CC13CCC2C3(C)C (centres undefined)
> 100 µM: [1] | [2] | [3] | [4] | [5] | [6] | [7] | [8] | [9] | [10] | [11] | [12] | [13] | [14] | [15] | [16] | [17] | [18] | [19] | [20] | [21] | [22] | [23] | [24] | [25] | [26] | [27] | [28] | [29] | [30] | [31] | [32] | [33] | [34] | [35] | [36] | [37] | [38] | [39] | [40] | [41] | [42] | [43] | [44] | [45] | [46] | [47] | [48] | [49] | [50] | [51] | [52] | [53] | [54] | [55] | [56] | [57] | [58]

Nc1nc(=S)c2c(ncn2CC(O)CO)[nH]1 (centres undefined)
> 100 µM: [1] | [2] | [3] | [4] | [5] | [6] | [7] | [8] | [9] | [10] | [12] | [13] | [14] | [15] | [16] | [17] | [18] | [19] | [20] | [21] | [22] | [23] | [24] | [25] | [26] | [27] | [29] | [30] | [31] | [32] | [33] | [34] | [35] | [36] | [37] | [38] | [39] | [40] | [41] | [42] | [43] | [44] | [45] | [46] | [47] | [48] | [49] | [50] | [51] | [52] | [53] | [54] | [55] | [56] | [57] | [58]
